Source: PubChem BioAssay (NCI)
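Cultured in 96-well plates, cells were exposed to test compound for 48 hours across five concentrations. The concentration for 50% growth inhibition is given as GI50. Definition used: TGI = concentration required for complete inhibition of growth.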

Tests used:
Assay in all cases: growth of human tumour cells (NCI), 48 h; in the data active means GI50 below about 0.43 µM; inactive means the rest
786-0 renal = test system: 786-0 renal
A498 renal = test system: A498 renal
A549 NSCLC = test system: A549 NSCLC
ACHN renal = test system: ACHN renal
BT-549 breast = test system: BT-549 breast
CAKI-1 renal = test system: CAKI-1 renal
COLO 205 colon = test system: COLO 205 colon
DU-145 prostate = test system: DU-145 prostate
HCC-2998 colon = test system: HCC-2998 colon
HCT-116 colon = test system: HCT-116 colon
HCT-15 colon = test system: HCT-15 colon
HL-60(TB) leukemia = test system: HL-60(TB) leukemia
HOP-62 NSCLC = test system: HOP-62 NSCLC
HOP-92 NSCLC = test system: HOP-92 NSCLC
HS 578T breast = test system: HS 578T breast
HT29 colon = test system: HT29 colon
IGROV1 ovarian = test system: IGROV1 ovarian
K-562 leukemia = test system: K-562 leukemia
KM12 colon = test system: KM12 colon
M14 melanoma = test system: M14 melanoma
MALME-3M melanoma = test system: MALME-3M melanoma
MCF7 breast = test system: MCF7 breast
MDA-MB-231 breast = test system: MDA-MB-231 breast
MDA-MB-435 = test system: MDA-MB-435
NCI-H226 lung = test system: NCI-H226 lung
NCI-H23 lung = test system: NCI-H23 lung
NCI-H460 lung = test system: NCI-H460 lung
NCI-H522 lung = test system: NCI-H522 lung
NCI/ADR-RES ovarian = test system: NCI/ADR-RES ovarian
OVCAR-3 ovarian = test system: OVCAR-3 ovarian
OVCAR-4 ovarian = test system: OVCAR-4 ovarian
OVCAR-5 ovarian = test system: OVCAR-5 ovarian
PC-3 prostate = test system: PC-3 prostate
RPMI-8226 leukemia = test system: RPMI-8226 leukemia
RXF 393 renal = test system: RXF 393 renal
SF-268 CNS = test system: SF-268 CNS
SF-295 CNS = test system: SF-295 CNS
SF-539 CNS = test system: SF-539 CNS
SK-MEL-2 melanoma = test system: SK-MEL-2 melanoma
SK-MEL-28 melanoma = test system: SK-MEL-28 melanoma
SK-MEL-5 melanoma = test system: SK-MEL-5 melanoma
SK-OV-3 ovarian = test system: SK-OV-3 ovarian
SN12C renal = test system: SN12C renal
SNB-19 CNS = test system: SNB-19 CNS
SNB-75 CNS = test system: SNB-75 CNS
SR leukemia = test system: SR leukemia
SW-620 colon = test system: SW-620 colon
T-47D breast = test system: T-47D breast
TK-10 renal = test system: TK-10 renal
U251 CNS = test system: U251 CNS
UACC-257 melanoma = test system: UACC-257 melanoma
UACC-62 melanoma = test system: UACC-62 melanoma
UO-31 renal = test system: UO-31 renal
CCRF-CEM leukemia = test system: CCRF-CEM leukemia
EKVX NSCLC = test system: EKVX NSCLC
LOX IMVI melanoma = test system: LOX IMVI melanoma
MOLT-4 leukemia = test system: MOLT-4 leukemia
OVCAR-8 ovarian = test system: OVCAR-8 ovarian

C[C@]1(Cn2ccnn2)C(C(=O)O)N2C(=O)CC2S1(=O)=O (stereo partly specified)
inactive: GI50 (786-0 renal) > 100 µM | GI50 (A498 renal) > 100 µM | GI50 (A549 NSCLC) > 100 µM | GI50 (ACHN renal) > 100 µM | GI50 (BT-549 breast) > 100 µM | GI50 (CAKI-1 renal) > 100 µM | GI50 (COLO 205 colon) > 100 µM | GI50 (DU-145 prostate) > 100 µM | GI50 (HCC-2998 colon) > 100 µM | GI50 (HCT-116 colon) > 100 µM | GI50 (HCT-15 colon) > 100 µM | GI50 (HL-60(TB) leukemia) > 100 µM | GI50 (HOP-62 NSCLC) > 100 µM | GI50 (HOP-92 NSCLC) > 100 µM | GI50 (HS 578T breast) > 100 µM | GI50 (HT29 colon) > 100 µM | GI50 (IGROV1 ovarian) > 100 µM | GI50 (K-562 leukemia) > 100 µM | GI50 (KM12 colon) > 100 µM | GI50 (M14 melanoma) > 100 µM | GI50 (MALME-3M melanoma) > 100 µM | GI50 (MCF7 breast) > 100 µM | GI50 (MDA-MB-231 breast) > 100 µM | GI50 (MDA-MB-435) > 100 µM | GI50 (NCI-H226 lung) > 100 µM | GI50 (NCI-H23 lung) > 100 µM | GI50 (NCI-H460 lung) > 100 µM | GI50 (NCI-H522 lung) > 100 µM | GI50 (NCI/ADR-RES ovarian) > 100 µM | GI50 (OVCAR-3 ovarian) > 100 µM | GI50 (OVCAR-4 ovarian) > 100 µM | GI50 (OVCAR-5 ovarian) > 100 µM | GI50 (PC-3 prostate) > 100 µM | GI50 (RPMI-8226 leukemia) > 100 µM | GI50 (RXF 393 renal) > 100 µM | GI50 (SF-268 CNS) > 100 µM | GI50 (SF-295 CNS) > 100 µM | GI50 (SF-539 CNS) > 100 µM | GI50 (SK-MEL-2 melanoma) > 100 µM | GI50 (SK-MEL-28 melanoma) > 100 µM | GI50 (SK-MEL-5 melanoma) > 100 µM | GI50 (SK-OV-3 ovarian) > 100 µM | GI50 (SN12C renal) > 100 µM | GI50 (SNB-19 CNS) > 100 µM | GI50 (SNB-75 CNS) > 100 µM | GI50 (SR leukemia) > 100 µM | GI50 (SW-620 colon) > 100 µM | GI50 (T-47D breast) > 100 µM | GI50 (TK-10 renal) > 100 µM | GI50 (U251 CNS) > 100 µM | GI50 (UACC-257 melanoma) > 100 µM | GI50 (UACC-62 melanoma) > 100 µM | GI50 (UO-31 renal) > 100 µM
> 100 µM: TGI (786-0 renal) | TGI (A498 renal) | TGI (A549 NSCLC) | TGI (ACHN renal) | TGI (BT-549 breast) | TGI (CAKI-1 renal) | TGI (COLO 205 colon) | TGI (DU-145 prostate) | TGI (HCC-2998 colon) | TGI (HCT-116 colon) | TGI (HCT-15 colon) | TGI (HL-60(TB) leukemia) | TGI (HOP-62 NSCLC) | TGI (HOP-92 NSCLC) | TGI (HS 578T breast) | TGI (HT29 colon) | TGI (IGROV1 ovarian) | TGI (K-562 leukemia) | TGI (KM12 colon) | TGI (M14 melanoma) | TGI (MALME-3M melanoma) | TGI (MCF7 breast) | TGI (MDA-MB-231 breast) | TGI (MDA-MB-435) | TGI (NCI-H226 lung) | TGI (NCI-H23 lung) | TGI (NCI-H460 lung) | TGI (NCI-H522 lung) | TGI (NCI/ADR-RES ovarian) | TGI (OVCAR-3 ovarian) | TGI (OVCAR-4 ovarian) | TGI (OVCAR-5 ovarian) | TGI (PC-3 prostate) | TGI (RPMI-8226 leukemia) | TGI (RXF 393 renal) | TGI (SF-268 CNS) | TGI (SF-295 CNS) | TGI (SF-539 CNS) | TGI (SK-MEL-2 melanoma) | TGI (SK-MEL-28 melanoma) | TGI (SK-MEL-5 melanoma) | TGI (SK-OV-3 ovarian) | TGI (SN12C renal) | TGI (SNB-19 CNS) | TGI (SNB-75 CNS) | TGI (SR leukemia) | TGI (SW-620 colon) | TGI (T-47D breast) | TGI (TK-10 renal) | TGI (U251 CNS) | TGI (UACC-257 melanoma) | TGI (UACC-62 melanoma) | TGI (UO-31 renal)

Cc1ccc(C2=C(c3ccc(C)cc3)C3(c4ccc(C)cc4)C4C(=O)c5ccccc5C(=O)C4C2(c2ccc(C)cc2)S3=O)cc1 (stereo unspecified)
inactive: GI50 (786-0 renal) 69.5 µM | GI50 (A498 renal) > 100 µM | GI50 (A549 NSCLC) > 100 µM | GI50 (ACHN renal) > 100 µM | GI50 (BT-549 breast) > 100 µM | GI50 (CAKI-1 renal) > 100 µM | GI50 (CCRF-CEM leukemia) > 100 µM | GI50 (COLO 205 colon) > 100 µM | GI50 (DU-145 prostate) > 100 µM | GI50 (EKVX NSCLC) > 100 µM | GI50 (HCC-2998 colon) > 100 µM | GI50 (HCT-116 colon) > 100 µM | GI50 (HCT-15 colon) > 100 µM | GI50 (HOP-62 NSCLC) 73.7 µM | GI50 (HS 578T breast) > 100 µM | GI50 (HT29 colon) > 100 µM | GI50 (IGROV1 ovarian) > 100 µM | GI50 (K-562 leukemia) > 100 µM | GI50 (KM12 colon) > 100 µM | GI50 (LOX IMVI melanoma) > 100 µM | GI50 (M14 melanoma) > 100 µM | GI50 (MALME-3M melanoma) > 100 µM | GI50 (MCF7 breast) > 100 µM | GI50 (MDA-MB-231 breast) 60 µM | GI50 (MDA-MB-435) > 100 µM | GI50 (MOLT-4 leukemia) > 100 µM | GI50 (NCI-H226 lung) > 100 µM | GI50 (NCI-H23 lung) > 100 µM | GI50 (NCI-H460 lung) > 100 µM | GI50 (NCI-H522 lung) > 100 µM | GI50 (NCI/ADR-RES ovarian) > 100 µM | GI50 (OVCAR-3 ovarian) > 100 µM | GI50 (OVCAR-4 ovarian) 45 µM | GI50 (OVCAR-5 ovarian) > 100 µM | GI50 (OVCAR-8 ovarian) > 100 µM | GI50 (PC-3 prostate) > 100 µM | GI50 (RPMI-8226 leukemia) > 100 µM | GI50 (RXF 393 renal) 94.4 µM | GI50 (SF-268 CNS) > 100 µM | GI50 (SF-295 CNS) > 100 µM | GI50 (SF-539 CNS) > 100 µM | GI50 (SK-MEL-2 melanoma) > 100 µM | GI50 (SK-MEL-28 melanoma) 60.6 µM | GI50 (SK-MEL-5 melanoma) > 100 µM | GI50 (SK-OV-3 ovarian) > 100 µM | GI50 (SN12C renal) > 100 µM | GI50 (SNB-19 CNS) 63.7 µM | GI50 (SNB-75 CNS) 9.93 µM | GI50 (SW-620 colon) > 100 µM | GI50 (T-47D breast) 72.4 µM | GI50 (TK-10 renal) > 100 µM | GI50 (U251 CNS) 63 µM | GI50 (UACC-257 melanoma) > 100 µM | GI50 (UACC-62 melanoma) > 100 µM | GI50 (UO-31 renal) > 100 µM
> 100 µM: TGI (786-0 renal) | TGI (A498 renal) | TGI (A549 NSCLC) | TGI (ACHN renal) | TGI (BT-549 breast) | TGI (CAKI-1 renal) | TGI (CCRF-CEM leukemia) | TGI (COLO 205 colon) | TGI (DU-145 prostate) | TGI (EKVX NSCLC) | TGI (HCC-2998 colon) | TGI (HCT-116 colon) | TGI (HCT-15 colon) | TGI (HOP-62 NSCLC) | TGI (HS 578T breast) | TGI (HT29 colon) | TGI (IGROV1 ovarian) | TGI (K-562 leukemia) | TGI (KM12 colon) | TGI (LOX IMVI melanoma) | TGI (M14 melanoma) | TGI (MALME-3M melanoma) | TGI (MCF7 breast) | TGI (MDA-MB-231 breast) | TGI (MDA-MB-435) | TGI (MOLT-4 leukemia) | TGI (NCI-H226 lung) | TGI (NCI-H23 lung) | TGI (NCI-H460 lung) | TGI (NCI-H522 lung) | TGI (NCI/ADR-RES ovarian) | TGI (OVCAR-3 ovarian) | TGI (OVCAR-4 ovarian) | TGI (OVCAR-5 ovarian) | TGI (OVCAR-8 ovarian) | TGI (PC-3 prostate) | TGI (RPMI-8226 leukemia) | TGI (RXF 393 renal) | TGI (SF-268 CNS) | TGI (SF-295 CNS) | TGI (SF-539 CNS) | TGI (SK-MEL-2 melanoma) | TGI (SK-MEL-28 melanoma) | TGI (SK-MEL-5 melanoma) | TGI (SK-OV-3 ovarian) | TGI (SN12C renal) | TGI (SNB-19 CNS) | TGI (SW-620 colon) | TGI (T-47D breast) | TGI (TK-10 renal) | TGI (U251 CNS) | TGI (UACC-257 melanoma) | TGI (UACC-62 melanoma) | TGI (UO-31 renal)
31 µM: TGI (SNB-75 CNS)
